From US20100150894A1, “COMPOSITION FOR PREVENTION OF CANCER” (Kaneka Corporation, priority 2005, published 2010)

Test system: azoxymethane (AOM)-induced aberrant crypt foci (ACF) in colon
Test: Cancer prevention evaluation: AOM-induced colon aberrant crypt foci (ACF) in rats
Assay type: in vivo
Settings: male F344 rats, 4 weeks; for number of formation of ACF compared with the control group: AOM 15 mg/kg s.c. once a week over two weeks
Procedure: 6-week-old male F344 rats were divided into 3 groups (2 treated groups and 1 control group; each group consisted of 9 rats) and a colon carcinogen azoxymethane (AOM) was injected subcutaneously at the dose of 15 mg/kg body weight once a week over two weeks. From the day before injection of AOM, to the treated groups, coenzyme Q10 (Kaneka Q10, Kaneka Corporation) was fed together with feed at the concentration of 200 or 500 ppm, respectively. 4 weeks later, aberrant crypt foci (ACF), which is a precancerous change in colon cancer, was analyzed. After the rats were sacrificed, the colons (from the cecum to rectum) were enucleated and fixed using a 10% neutral buffered formalin. After the fixation, the colons were washed with a phosphate buffered-saline and stained with a 0.2% methylene blue-containing phosphate buffered-saline. Then, the number and size of ACF were measured using a microscope. […] As observed above, it was made clear that coenzyme Q10 has an effect for inhibiting the initial stage of AOM-induced formation of colon ACF, which is a precancerous change of colon cancer.

COC1=C(OC)C(=O)C(C/C=C(\C)CC/C=C(\C)CC/C=C(\C)CC/C=C(\C)CC/C=C(\C)CC/C=C(\C)CC/C=C(\C)CC/C=C(\C)CC/C=C(\C)CCC=C(C)C)=C(C)C1=O [coenzyme Q10]
number of formation of ACF compared with the control group (coenzyme Q10 200 ppm in feed): 76.6%
number of formation of ACF compared with the control group (coenzyme Q10 500 ppm in feed, p<0.01): 68.0%
size difference in ACF between control group and treated groups (AOM-induced, coenzyme Q10 200 or 500 ppm in feed): not recognized
